The record followed here is patent publication US11459315B2, “Modulators of methyl modifying enzymes, compositions and uses thereof” (Constellation Pharmaceuticals, Inc., priority 2017, dated 2022).

The test system of test [1] is H3K27me3 mark in HeLa cells (EZH2). The test can be described thus: H3K27me3 Alpha Hela Assay (AlphaLISA). The class given is cell-based. The note with it: HeLa cell assay, Table 3 classes, read-out: EC50 Cellular Activity. An outline of the steps: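 HeLa cells (1,000/well) treated with ten 3-fold compound doses for 72 h at 37 °C; lysates extracted and H3K27me3 detected by AlphaLISA with anti-K27me3 acceptor beads, biotinylated anti-H3 (3 nM) and streptavidin donor beads. EC50 from DMSO-normalized dose-response curves; duplicate plate assessed viability.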
On the technique in general: In Alpha technology, singlet oxygen from a donor bead excites a nearby acceptor bead.

In another test the target is PRC2 containing wt EZH2 (Homo sapiens (Human), UniProt Q15910). Put plainly: EZH2 residence time assay (100-fold dilution of pre-formed enzyme-inhibitor complex). The class given is biochemical. The procedure:
EZH2 residence time assay: Compound residence times were assessed by monitoring the recovery of enzyme activity following a 100-fold dilution of pre-formed enzyme-inhibitor complex (dilution reaction), and comparing it to the activity of an undiluted control with the same final concentrations of all reagents (control reaction). Enzyme activity was measured by incorporation of ^3H-SAM into a biotinylated H3 peptide. […] For the control reaction, 0.202 nM PRC2 was pre-incubated with 1 μM activating peptide, 1.01 μM SAM, 1.01 μM ^3H-SAM, and compound at 6.06 times its Ki for 2 h in 138.6 μL of buffer, then the reaction was initiated by the addition of 1.4 μL 500 μM substrate peptide in water. Reactions were quenched at various time points spanning up to 10 hours, by transferring 8 μL aliquots from the reaction vessel to a plate containing 8 μL per well of STOP solution (50 mM Tris pH 8.5, 200 mM EDTA, 2 mM SAH). After the last time point, 12 μL of the quenched solutions were transferred to a streptavidin coated FlashPlate (PerkinElmer) containing 40 μL per well of STOP solution, incubated 1-8 h, washed, and read in a TopCount plate reader (PerkinElmer). A custom script was used to fit control reaction progress data to a straight line and dilution reaction progress data:
Where y is the product formed, t is the reaction time, vi is the initial velocity, vs is the steady state velocity, and kobs is the rate constant for the transition from the initial velocity phase of the curve to the steady state velocity phase of the curve. In fitting the dilution reaction progress data, vs was constrained to the slope of the line fitted to the control reaction progress data. The fitted value of kobs was then transformed into residence time:
Where τ is residence time, Ki is the inhibition constant, [EI] is the calculated equilibrium concentration of enzyme-inhibitor complex, [E] is the calculated equilibrium concentration of free enzyme, and [I] is the calculated equilibrium concentration of free inhibitor.

Read-outs that look alike come from different tables or passages of the source. A value given as a limit tells only on which side of the number the result lay.

PRC2 containing wt EZH2, sequence (Q15910 whole entry): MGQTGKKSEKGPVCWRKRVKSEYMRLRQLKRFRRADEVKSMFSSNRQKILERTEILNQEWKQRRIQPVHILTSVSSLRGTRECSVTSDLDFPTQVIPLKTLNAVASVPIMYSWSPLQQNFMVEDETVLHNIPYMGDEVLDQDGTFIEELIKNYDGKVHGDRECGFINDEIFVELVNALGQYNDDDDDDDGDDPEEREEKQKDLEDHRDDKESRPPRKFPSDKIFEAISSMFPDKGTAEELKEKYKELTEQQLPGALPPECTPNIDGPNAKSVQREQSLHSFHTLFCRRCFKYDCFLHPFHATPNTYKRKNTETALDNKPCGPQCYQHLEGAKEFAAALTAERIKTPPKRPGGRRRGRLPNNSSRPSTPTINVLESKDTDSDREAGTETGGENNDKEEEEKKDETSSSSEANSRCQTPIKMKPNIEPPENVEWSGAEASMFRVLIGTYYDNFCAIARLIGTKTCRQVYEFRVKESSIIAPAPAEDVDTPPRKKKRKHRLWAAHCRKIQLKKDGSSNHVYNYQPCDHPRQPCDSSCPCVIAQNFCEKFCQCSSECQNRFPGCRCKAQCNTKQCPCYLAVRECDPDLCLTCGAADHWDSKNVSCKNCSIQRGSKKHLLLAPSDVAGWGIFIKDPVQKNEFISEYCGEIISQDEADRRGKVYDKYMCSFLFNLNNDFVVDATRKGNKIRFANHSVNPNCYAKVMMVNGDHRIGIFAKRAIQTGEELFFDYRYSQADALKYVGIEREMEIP
PRC2 containing wt EZH2, sequence (O75530 whole entry partner): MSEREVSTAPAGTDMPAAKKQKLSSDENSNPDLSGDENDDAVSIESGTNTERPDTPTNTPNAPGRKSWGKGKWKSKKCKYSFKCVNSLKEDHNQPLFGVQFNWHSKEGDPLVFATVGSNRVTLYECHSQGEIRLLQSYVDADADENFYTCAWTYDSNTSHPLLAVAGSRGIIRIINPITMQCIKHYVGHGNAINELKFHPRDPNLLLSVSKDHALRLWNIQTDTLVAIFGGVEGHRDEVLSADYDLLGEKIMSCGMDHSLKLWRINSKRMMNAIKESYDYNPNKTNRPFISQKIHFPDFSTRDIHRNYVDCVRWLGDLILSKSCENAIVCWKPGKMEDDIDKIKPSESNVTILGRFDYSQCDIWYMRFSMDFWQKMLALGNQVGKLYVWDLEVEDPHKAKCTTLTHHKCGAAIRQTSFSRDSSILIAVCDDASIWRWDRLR
PRC2 containing wt EZH2, sequence (Q15022 whole entry partner): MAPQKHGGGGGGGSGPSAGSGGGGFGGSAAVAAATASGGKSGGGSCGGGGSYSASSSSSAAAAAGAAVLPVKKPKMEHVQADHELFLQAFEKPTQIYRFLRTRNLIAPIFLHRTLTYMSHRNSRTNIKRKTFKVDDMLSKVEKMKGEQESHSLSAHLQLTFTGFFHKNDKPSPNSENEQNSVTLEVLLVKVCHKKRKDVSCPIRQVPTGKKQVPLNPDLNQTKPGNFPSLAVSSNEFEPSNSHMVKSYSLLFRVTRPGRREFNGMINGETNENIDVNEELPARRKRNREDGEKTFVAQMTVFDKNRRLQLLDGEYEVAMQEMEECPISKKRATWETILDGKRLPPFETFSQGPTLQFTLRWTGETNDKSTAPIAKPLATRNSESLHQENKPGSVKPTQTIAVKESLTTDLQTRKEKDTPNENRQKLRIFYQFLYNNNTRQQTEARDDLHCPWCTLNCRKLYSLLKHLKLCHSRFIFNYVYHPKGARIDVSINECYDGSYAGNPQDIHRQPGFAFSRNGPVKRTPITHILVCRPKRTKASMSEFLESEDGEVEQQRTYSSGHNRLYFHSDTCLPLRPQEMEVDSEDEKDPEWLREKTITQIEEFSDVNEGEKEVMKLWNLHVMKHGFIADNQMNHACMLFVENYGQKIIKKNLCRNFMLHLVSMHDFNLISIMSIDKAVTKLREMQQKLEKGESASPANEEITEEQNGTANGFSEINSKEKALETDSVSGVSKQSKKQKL
PRC2 containing wt EZH2, sequence (Q09028 whole entry partner): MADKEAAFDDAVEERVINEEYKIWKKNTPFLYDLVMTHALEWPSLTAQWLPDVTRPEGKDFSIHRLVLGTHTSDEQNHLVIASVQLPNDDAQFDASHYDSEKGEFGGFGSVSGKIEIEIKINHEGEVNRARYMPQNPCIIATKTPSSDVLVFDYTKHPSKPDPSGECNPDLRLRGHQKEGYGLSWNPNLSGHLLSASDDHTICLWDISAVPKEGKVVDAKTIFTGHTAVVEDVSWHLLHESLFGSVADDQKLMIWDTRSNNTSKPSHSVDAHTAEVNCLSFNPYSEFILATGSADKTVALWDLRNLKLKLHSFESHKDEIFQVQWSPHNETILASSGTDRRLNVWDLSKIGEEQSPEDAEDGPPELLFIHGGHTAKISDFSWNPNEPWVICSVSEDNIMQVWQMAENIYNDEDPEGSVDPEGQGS
PRC2 containing wt EZH2, sequence (Q6ZN18 whole entry partner): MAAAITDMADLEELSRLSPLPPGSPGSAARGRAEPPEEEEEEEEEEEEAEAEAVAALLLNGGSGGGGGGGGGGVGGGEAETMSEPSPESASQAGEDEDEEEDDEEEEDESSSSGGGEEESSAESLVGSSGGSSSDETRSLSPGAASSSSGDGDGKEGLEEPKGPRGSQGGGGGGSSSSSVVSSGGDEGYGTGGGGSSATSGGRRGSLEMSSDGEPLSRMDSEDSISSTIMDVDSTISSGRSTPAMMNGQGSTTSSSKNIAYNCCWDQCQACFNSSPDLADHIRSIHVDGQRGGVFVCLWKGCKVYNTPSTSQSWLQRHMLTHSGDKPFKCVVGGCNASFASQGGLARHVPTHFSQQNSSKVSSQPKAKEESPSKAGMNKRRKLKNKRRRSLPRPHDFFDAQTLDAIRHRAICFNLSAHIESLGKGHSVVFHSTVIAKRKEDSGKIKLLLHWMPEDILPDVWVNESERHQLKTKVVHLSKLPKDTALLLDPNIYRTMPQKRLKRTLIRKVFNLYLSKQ

As to `CSc1cc(C)[nH]c(=O)c1CNC(=O)c1c(C)n([C@H](C)C2CCC(O)CC2)c2ccccc12` (single isomer, unassigned) [drawing 251], the EC50 (in general, the concentration that produces a half-maximal response) in test [1] was less than 5 nM. In addition, the “residence time” value at PRC2 containing wt EZH2 was “A (value of greater than 35 hours)”.

As to `CSc1cc(C)[nH]c(=O)c1CNC(=O)c1c(C)n([C@H](C)C2CCC(N3CC(OC(F)F)C3)CC2)c2ccccc12` (single isomer, unassigned) [drawing 252], the EC50 in test [1] (Homo sapiens, HeLa) is less than 5 nM. On PRC2 containing wt EZH2, the residence time was greater than 2100 min.

For `CSc1cc(C)[nH]c(=O)c1CNC(=O)c1c(C)n([C@H](C)C2CCC(N3CC(F)C3)CC2)c2ccccc12` (single isomer, unassigned) [drawing 254], in test [1] (Homo sapiens, HeLa), the EC50 was less than 5 nM. The “residence time” value on PRC2 containing wt EZH2 was “A (value of greater than 35 hours)”.

As for `CSc1cc(C)[nH]c(=O)c1CNC(=O)c1c(C)n([C@H](C)C2CCC(N3CC(F)C3)CC2)c2ccccc12` (single isomer, unassigned) [drawing 255], in test [1], the EC50 was in the range of 5 to 25 nM. Further, the “residence time” value on PRC2 containing wt EZH2 is listed as “C (a t value of greater than 0.5 hours but less or equal than 5 hours)”.

Regarding `COC1CN(C2CCC([C@@H](C)n3c(C)c(C(=O)NCc4c(SC)cc(C)[nH]c4=O)c4cccnc43)CC2)C1` (single isomer, unassigned) [drawing 259], in test [1], the EC50 lay in the range of 5 to 25 nM. On PRC2 containing wt EZH2, this compound returned a residence time of 300 to 2100 min.

As to `CCOC1CN(C2CCC([C@@H](C)n3c(C)c(C(=O)NCc4c(SC)cc(C)[nH]c4=O)c4cccnc43)CC2)C1` (single isomer, unassigned) [drawing 261], the EC50 in test [1] was less than 5 nM. In addition, the residence time on PRC2 containing wt EZH2 (read-out: Residence Time) lay in the range of 300 to 2100 min.

Regarding `CSc1cc(C)[nH]c(=O)c1CNC(=O)c1c(C)n([C@H](C)C2CCC(NC3(C)CCOC3)CC2)c2ccccc12` (single isomer, unassigned) [drawing 269], the half-maximal effective concentration (EC50) in test [1] lay in the range of 5 to 25 nM. The residence time on PRC2 containing wt EZH2 was greater than 2100 min.

Regarding `CSc1cc(C)[nH]c(=O)c1CNC(=O)c1c(C)n([C@H](C)C23CC(NC4COC4)(C2)C3)c2ccccc12` [drawing 234], in test [1] (Homo sapiens, HeLa), the EC50 was less than 5 nM. At PRC2 containing wt EZH2, this compound came in with a residence time of 300 to 2100 min.

As to `CSc1cc(C)[nH]c(=O)c1CNC(=O)c1c(C)n([C@H](C)C23CC(N(C)CC(F)(F)F)(C2)C3)c2ccccc12` [drawing 237], in test [1] (Homo sapiens, HeLa), the EC50 lay in the range of 5 to 25 nM. The compound further displayed a residence time on PRC2 containing wt EZH2 of 300 to 2100 min.

In the case of `CSc1cc(C)[nH]c(=O)c1CNC(=O)c1c(C)n([C@H](C)C2CCN(CC(C)(C)O)CC2)c2ccccc12` [drawing 240], in test [1] (Homo sapiens, HeLa), the EC50 lay within 25 to 125 nM. The compound also returned a residence time on PRC2 containing wt EZH2 of 300 to 2100 min.

With `CSc1cc(C)[nH]c(=O)c1CNC(=O)c1c(C)n([C@H](C)C2CCN(CC(F)(F)F)CC2)c2ccccc12` [drawing 243], the EC50 in test [1] (Homo sapiens, HeLa) is less than 5 nM. On PRC2 containing wt EZH2, the residence time is 300 to 2100 min.

For the compound `CSc1cc(C)[nH]c(=O)c1CNC(=O)c1c(C)n([C@H](C)C2CCOCC2)c2ccccc12` [drawing 247], the EC50 in test [1] (Homo sapiens, HeLa) was less than 5 nM. Besides, the residence time at PRC2 containing wt EZH2 fell in the range of 30 to 300 min.

Take `CSc1cc(C)[nH]c(=O)c1CNC(=O)c1c(C)n([C@H](C)C2CCN(C3CC3)CC2)c2ncccc12` [drawing 256]: in test [1] (Homo sapiens, HeLa), the EC50 is less than 5 nM. For the same compound, the residence time on PRC2 containing wt EZH2 fell in the range of 300 to 2100 min.

Take `COC1CN(C2CCC([C@@H](C)n3c(C)c(C(=O)NCc4c(SC5CC5)cc(C)[nH]c4=O)c4ccccc43)CC2)C1` (stereo partly shown) [drawing 264]: in test [1] (Homo sapiens, HeLa), the EC50 was in the range of 5 to 25 nM. This compound also returned a residence time on PRC2 containing wt EZH2 of 300 to 2100 min.

Regarding `CCSc1cc(C)[nH]c(=O)c1CNC(=O)c1c(C)n([C@H](C)C2CCN(CC(F)(F)F)CC2)c2ccccc12` [drawing 265], the EC50 in test [1] (Homo sapiens, HeLa) was 25 to 125 nM. The compound further gave a residence time on PRC2 containing wt EZH2 of less than 30 min.

For `Cc1cc(SC(F)F)c(CNC(=O)c2c(C)n([C@H](C)C3CCN(CC(F)(F)F)CC3)c3ccccc23)c(=O)[nH]1` [drawing 266], the EC50 in test [1] (Homo sapiens, HeLa) lay within 25 to 125 nM. The compound also displayed a residence time on PRC2 containing wt EZH2 of less than 30 min.

As to `Cc1cc(SC2CCC2)c(CNC(=O)c2c(C)n([C@H](C)C3CCN(CC(F)(F)F)CC3)c3ccccc23)c(=O)[nH]1` [drawing 267], the EC50 in test [1] (Homo sapiens, HeLa) fell in the range of 25 to 125 nM. The compound also registered a residence time on PRC2 containing wt EZH2 of 30 to 300 min.
